Data set [1] is described as follows: Half life period was determined. The data set is classed as ADME. Conditions: rat.
Data set [2] deals with LoVo. As to the kind of experiment: Tested for the cytotoxic effect in LoVo cells, activity. Conditions: Homo sapiens. Format: functional, cell-based.

The structures appear in SMILES notation. Some results are limits rather than exact numbers.

Broadly, the half-life is the time needed for the level to fall by half in the phase considered. Low values mean rapid decline, high ones slow decline. By IC50 is commonly meant the concentration at which inhibition is half-maximal.

For the molecule `CN(C(=O)Oc1ccc(N(CCCl)CCCl)cc1)c1cc([N+](=O)[O-])ccc1O[C@@H]1O[C@@H](C(=O)O)[C@@H](O)[C@H](O)[C@@H]1O`, the half-life in data set [1] was determined as 44 min. The IC50 in data set [2] was > 830 µM.

These data come from ChEMBL document CHEMBL1159179, “Glucuronide prodrugs of hydroxy compounds for antibody directed enzyme prodrug therapy (ADEPT) : A phenol nitrogen mustard carbamate” (Bioorg Med Chem Lett, 1997).
